This is an account of results in article PMC6058716, “Two Odorant-Binding Proteins of the Dark Black Chafer (Holotrichia parallela) Display Preferential Binding to Biologically Active Host Plant Volatiles” (Frontiers in Physiology, 2018).

Read-outs that look alike come from different tables or passages of the source.

One assay concerns the target HparOBP20 (Holotrichia parallela, UniProt A0A0G2YKL4). The assay can be described thus: Fluorescence competitive binding assay with 1-NPN probe, recombinant HparOBP20. The procedure: (§1) Purification was performed via Ni ion affinity chromatography (GE Healthcare, Beijing, China), and the His-tag was removed using enterokinase for HparOBP20 or tobacco etch virus (TEV) protease for HparOBP49.
(§2) We used an F-380 fluorescence spectrophotometer (Tianjin, China) to determine the results of the perform the binding assay at room temperature (25°C). The excitation wavelength was 337 nm, and the emission spectrum was recorded between 390 and 460 nm.

For a further assay, the target named is HparOBP49 (Holotrichia parallela, UniProt A0A0G2YD95). Kind of assay: Fluorescence competitive binding assay with 1-NPN probe, recombinant HparOBP49. The procedure:
as §1, §2

The next assay has as its system DBC antennae. The assay can be described thus: Electroantennogram (EAG) responses of virgin male/female antennae. The settings on record: 1 μg/μl, corrected with methanol; for EAG response, males: male antennae. Also on record: species or system Holotrichia parallela. The procedure:
The EAG responses of virgin male/female antennae were measured after removing the tips of the three antennal lamellae (at approximately 1 mm) and separating them from each other. The chemicals used for the EAG and behavior assays were diluted in methanol (HPLC grade) to varying concentrations (0.1, 1, and 10 μg/μl), and methanol was used as a control. A 10 μl aliquot of each concentration was applied to a filter paper (25 × 8 mm). EAG responses were recorded for 5 s, with a stimulation interval of 30 s and a flow rate of 4 ml/s for both the stimulant and purge airflow. Each chemical was tested against six antennae, and each antenna was tested with three repeated stimulations. The EAG apparatus consisted of a signal acquisition system (IDAC-4), a micromanipulator assembly (INR-5), a stimulus controller (CS-05), and a system for outputting the EAG results (Syntech Company, Holland).

In assay [1] the test system is DBC adults. The assay can be described thus: Y-tube olfactometer behavioral response. The format is in vivo, Holotrichia parallela. The settings on record: 1 μg/μl, T/(T+C); for Selective response rate (%), Male / Selective response rate (%), Female: in Figure 6, letters mark significance. Here is the method:
The behavioral responses of female and male adults to the putative ligands were tested using a Y-tube olfactometer in a dark room at 27 ± 1°C. A filter paper (25 × 8 mm) with 10 μl of the test compound was placed at the end of one arm of the Y-tube, with 10 μl of methanol at the end of the other arm (control tube). The airflow was 500 ml/min. Six replicates were performed for each stimulant with 10 healthy virgin adults in the main stem of the Y-tube, and 10 min was allowed for their distribution. The response rate was calculated according to the following equations: response rate = (T+C)/SUM and selective response rate = T/(T+C), where T represents the number of beetles in the treatment tube; C indicates the number of beetles in the control tube; and SUM is the number of beetles tested.

Assay [2] relates to DBC adults. Kind of assay: Field evaluation, baited traps. The format is in vivo, Holotrichia parallela. The settings on record: for Male DBCs caught in traps: males, 360 mg per dispenser, mean ± SE, N=3 traps; for Attractant ability in traps: result in words. The procedure: According to the laboratory evaluation, in addition to the main sex pheromone component, L-leucine methyl ester, (Z)-3-hexenyl acetate was considered as a candidate compound for attracting DBC adults in the field. The tested chemicals were individually dissolved with methanol to 360 mg/ml. A dispenser was constructed using oil-free cotton wool with 360 mg of the tested chemical and stored in a freezer before use. Methanol was employed as a control. The treatments were as follows: • - L-leucine methyl ester alone, 360 mg/ml, 1 ml/dispenser • - (Z)-3-hexenyl acetate alone, 360 mg/ml, 1 ml/dispenser • - methanol alone as control, 99% purity, 1 ml/dispenser All experiments were performed at the experimental station of the Shandong Peanut Research Institute, Lai Xi Wang Cheng, Qingdao, China. Traps were placed in middle of the field, and each trap was located 60 m from any other trap, so that the individual treatments were 60 m apart. To avoid cross-contamination, only one compound was tested at each sub-site at any time, and each compound was tested at only one sub-site ([Isberg et al., 2017]). Each trap was set to operate from 1 h before sunset until 1 h after sunset. Three traps (replicates) were selected for each treatment. The test period was June 1–20, 2017. As a rule, the traps were checked every day, and the individuals that were caught in all experiments were sexed.

Where [3] appears, read: displacement of 2 μM 1-NPN, 2 μM protein, Tris-HCl pH 7.4, 25°C, read-out: IC50, HparOBP20.
The mark [4] stands for this setting: displacement of 2 μM 1-NPN, 2 μM protein, Tris-HCl pH 7.4, 25°C, read-out: IC50, HparOBP49.
[5] abbreviates: calculated from IC50, Ki = [IC50]/(1+[1-NPN]/K1-NPN), read-out: Ki, HparOBP20.
[6] abbreviates: Ki, HparOBP20, calculated from IC50, Ki = [IC50]/(1+[1-NPN]/K1-NPN).

HparOBP49, sequence (A0A0G2YD95 entry or part of it): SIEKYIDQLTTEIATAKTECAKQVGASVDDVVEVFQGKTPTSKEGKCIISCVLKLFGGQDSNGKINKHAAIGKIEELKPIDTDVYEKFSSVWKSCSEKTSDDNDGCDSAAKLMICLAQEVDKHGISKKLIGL
HparOBP20, sequence (A0A0G2YKL4 entry or part of it): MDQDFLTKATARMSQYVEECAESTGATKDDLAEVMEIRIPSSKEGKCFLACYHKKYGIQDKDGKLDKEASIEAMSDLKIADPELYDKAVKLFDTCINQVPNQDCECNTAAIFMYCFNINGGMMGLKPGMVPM

With `CCCCCC=O` [1-Hexanal], the IC50 on HparOBP20 and at HparOBP49 was more than 50 µM throughout.

On to `CCCCCCO` [1-Hexanol], for which the IC50 on HparOBP20 (setting [3]) and on HparOBP49 (setting [4]) was more than 50 µM throughout.

In the case of `Cn1cccc1` [1-Methylpyrrole], the Ki on HparOBP20 (setting [5]) was 21.9 µM. Further, the IC50 at HparOBP20 (setting [3]) is 26.1 µM; on HparOBP49 (setting [4]), more than 50 µM.

As for `CCCCCCCCO` [1-Octanol], on HparOBP20 (setting [5]), the Ki was 25.3 µM. The IC50 at HparOBP20 (setting [3]) was 30.2 µM; on HparOBP49 (setting [4]), more than 50 µM.

Consider `CC(=O)c1ccc(C)c(C)c1` [3′,4′-Dimethylacetophenone], for which the IC50 at HparOBP20 (setting [3]) and at HparOBP49 (setting [4]) was more than 50 µM throughout.

As to `CCc1ccc(C(C)=O)cc1` [4′-Ethylacetophenone], the half-maximal inhibitory concentration (IC50) at HparOBP20 and on HparOBP49 was more than 50 µM each time.

For `CCC/C=C/CO` [(E)-2-Hexen-1-ol], the IC50 on HparOBP20 and on HparOBP49 was more than 50 µM each time.

On to `CCC/C=C/C=O` [(E)-2-Hexenal], for which the IC50 at HparOBP20 and on HparOBP49 was more than 50 µM each time.

For `CCC/C=C/COC(C)=O` [(E)-2-Hexenyl acetate], the Ki at HparOBP20 (setting [5]) is 23.3 µM. For the same compound, the IC50 at HparOBP20 (setting [3]) is 27.8 µM; at HparOBP49 (setting [4]) it was more than 50 µM.

On to `CC/C=C/CCO` [(E)-3-Hexen-1-ol], for which the IC50 was 30.3 µM at HparOBP20 and more than 50 µM on HparOBP49. The Ki on HparOBP20 (setting [6]) is 25.4 µM.

As to `C=C(C)[C@H]1CC=C(C)CC1` [(R)-(+)-Limonene], the Ki on HparOBP20 (setting [5]) is 24 µM. In addition, the figures for the IC50 on HparOBP20 (setting [3]) and on HparOBP49 (setting [4]) were 28.7 µM and more than 50 µM, respectively.

Turning to `C=C[C@](C)(O)CCC=C(C)C` [(R)-(-)-Linalool], the IC50 at HparOBP20 (setting [3]) and at HparOBP49 (setting [4]) was more than 50 µM in each case.

With `CC/C=C\CCO` [(Z)-3-Hexen-1-ol], the IC50 was 30.1 µM on HparOBP20 and more than 50 µM on HparOBP49. Further, the Ki on HparOBP20 (setting [6]) was 25.2 µM.

As to `CC/C=C\CCOC(C)=O` [(Z)-3-Hexenyl acetate], the Ki is 18.5 µM at HparOBP20 (setting [5]) and 39.7 µM at HparOBP49 (calculated from IC50, Ki = [IC50]/(1+[1-NPN]/K1-NPN), read-out: Ki, HparOBP49). The IC50 at HparOBP20 (setting [3]) was 22.1 µM; at HparOBP49 (setting [4]), 44.7 µM. In the assay on DBC antennae (female antennae), the “EAG response, females” value stood at 4.84 mV. Besides, in the assay on DBC antennae, the “EAG response, males” value turned out to be 4.02 mV. Moreover, the “Selective response rate, females” value in the assay with DBC adults [1] (females) was determined as 98%. In the assay on DBC adults [1] (males), this compound showed a Selective response rate (%), Male of 59%. Also, the “Male DBCs caught in traps” value in the assay on DBC adults [2] was found to be 83 ± 4.933 DBCs.

On to `O=Cc1ccccc1` [Benzaldehyde], for which the IC50 on HparOBP20 and on HparOBP49 was more than 50 µM throughout.

With `OCc1ccccc1` [Benzyl alcohol], the IC50 at HparOBP20 and at HparOBP49 was more than 50 µM in each case.

In the case of `CCCCCCCCCCCC` [Dodecane], the Ki at HparOBP20 (setting [5]) is 40.6 µM. For the same compound, the IC50 was 48.5 µM at HparOBP20 (setting [3]) and more than 50 µM at HparOBP49 (setting [4]).

Take `CCCCCCCCCCCC=O` [Dodecyl aldehyde]: the IC50 on HparOBP20 (setting [3]) and at HparOBP49 (setting [4]) was more than 50 µM throughout.

Turning to `CC(C)=CCC/C(C)=C/CC/C(C)=C/CO` [Farnesol, mixture of isomers, Farnesol], the IC50 on HparOBP20 (setting [3]) and at HparOBP49 (setting [4]) was more than 50 µM throughout.

For `CCCCCC(=O)O` [Hexanoic acid], the concentration for half-maximal inhibition (IC50) on HparOBP20 was 47.2 µM; on HparOBP49, 47.6 µM. In addition, the values for the inhibition constant (Ki) on HparOBP20 (setting [6]) and at HparOBP49 were 39.5 µM and 42.2 µM, respectively.

Consider `COC(=O)[C@@H](N)CC(C)C.Cl` [L-Leucine methyl ester], for which the IC50 at HparOBP20 (setting [3]) and at HparOBP49 (setting [4]) was more than 50 µM in each case. In the assay with DBC antennae, the “EAG response, males” value was found to be 5.68 mV. The “Selective response rate (%), Female” value with DBC adults [1] (females) is recorded as 0.20c %. Besides, the “Selective response rate, males” value in the assay on DBC adults [1] (males) turned out to be 96%. The “Male DBCs caught in traps” value with DBC adults [2] came to 258 ± 12.860 DBCs.

As for `COC(=O)c1ccccc1` [Methyl benzoate], the IC50 at HparOBP20 and on HparOBP49 was more than 50 µM in each case.

Take `COC(=O)c1ccccc1O` [Methyl salicylate]: the results for the IC50 at HparOBP20 and at HparOBP49 were 28.5 µM and more than 50 µM, respectively. For the same compound, on HparOBP20 (setting [6]), the Ki is 23.8 µM.

For the compound `CCCCCCCCC=O` [Nonanal], the IC50 at HparOBP20 (setting [3]) and on HparOBP49 (setting [4]) was more than 50 µM in each case.

For the compound `CCCCCCCCC(=O)O` [Nonanoic acid], the half-maximal inhibitory concentration (IC50) at HparOBP20 (setting [3]) and on HparOBP49 (setting [4]) was more than 50 µM each time.

As for `CCCCCCCCCCCCCCC` [Pentadecane], the Ki at HparOBP20 (setting [5]) was 13.8 µM. Further, the IC50 was 16.5 µM on HparOBP20 (setting [3]) and more than 50 µM at HparOBP49 (setting [4]). In addition, the Selective response rate (%), Female with DBC adults [1] (females) came to 67%. In addition, the Selective response rate (%), Male in the assay with DBC adults [1] (males) came to 59%. Also, the “Attractant ability in traps” value in the assay with DBC adults [2] is listed as “low attractant ability”.

Regarding `CCCCC=O` [Valeraldehyde], the inhibition constant (Ki) at HparOBP20 (setting [5]) is 26.1 µM. In addition, the IC50 was 31.1 µM at HparOBP20 (setting [3]) and more than 50 µM at HparOBP49 (setting [4]).

On to `CC1=CC[C@H](C(C)C)C=C1` [α-Phellandrene], for which the results for the IC50 at HparOBP20 and on HparOBP49 were 21.1 µM and more than 50 µM, respectively. The Ki on HparOBP20 (setting [6]) was 17.6 µM. In the assay on DBC adults [1] (females), this compound displayed a Selective response rate (%), Female of 51%. For the same compound, the Selective response rate (%), Male in the assay with DBC adults [1] (males) stood at 73%. For the same compound, in the assay with DBC adults [2], the “Attractant ability in traps” value was “low attractant ability”.

Regarding `CC1=CCC2CC1C2(C)C` (stereo not drawn) [α-Pinene], the IC50 on HparOBP20 was 26.8 µM; at HparOBP49, more than 50 µM. Further, the inhibition constant Ki at HparOBP20 (setting [6]) is 22.4 µM.

As for `C=C1CC/C=C(\C)CC[C@@H]2[C@@H]1CC2(C)C` [β-Caryophyllene], the IC50 on HparOBP20 and on HparOBP49 was more than 50 µM in each case. In the assay with DBC adults [1] (females), this compound returned a Selective response rate (%), Female of 48%.

For the compound “Farnesene [Farnesene, mixture of isomers]”, the IC50 on HparOBP20 (setting [3]) and on HparOBP49 (setting [4]) was more than 50 µM each time.

Turning to Ocimene [Ocimene, mixture of isomers], the IC50 on HparOBP20 (setting [3]) and at HparOBP49 (setting [4]) was more than 50 µM each time.

A word on the IC50: it is the concentration that inhibits the measured activity by half. Broadly, the Ki is the equilibrium dissociation constant of an inhibitor or competing ligand from its target.
